Measurements reported in US12473296B2, “Perk inhibiting compounds” (HiberCell, Inc., priority 2019, dated 2025).

Assays:
[1] = biological target: PERK (Homo sapiens (Human), UniProt Q9NZJ5); test: PERK cellular assay (TR-FRET, HEK293-EGFP-eIF2α cells, tunicamycin-induced ER stress); assay type: cell-based; settings: tunicamycin 2 hours, read-out: Cellular IC50 (μM) (EIF2a)
Description: Stable cell lines were created in HEK293 cells using lentiviral particles harboring an expression vector for GFP-eIF2α. Cells were selected using puromycin and enriched using fluorescence activated cell sorting against GFP. HEK293-EGFP-eIF2α cells were plated at 5000 cells/well in 384-well assay plates and incubated overnight at 37° C., 5% CO2. Inhibitor compounds were added to the wells by Echo acoustic dispensing and incubated for 30 minutes at 37° C., 5% CO2 prior to induction of ER stress by addition of tunicamycin to […] for 2 hours. Cells were lysed and TR-FRET was measured in an EnVision plate reader (PerkinElmer). FRET ratio data was normalized to signal from lysates treated with DMSO vehicle control and plotted as percent inhibition against 10-point; 3-fold dilution series of inhibitors. IC50 values were calculated using 4-parameter logistical fitting in XLFit.

[2] = biological target: EIF2AK3 (PERK) catalytic domain (amino acids 536-1116) (Homo sapiens (Human), UniProt Q9NZJ5); test: PERK in vitro activity assay (isolated), TR-FRET kinase assay; settings: isolated PERK enzyme, 1.5 μM ATP, GFP-eIF2a substrate; read-out: Biochemical IC50
EIF2AK3 (PERK) catalytic domain (amino acids 536-1116), sequence (Q9NZJ5 536-1116): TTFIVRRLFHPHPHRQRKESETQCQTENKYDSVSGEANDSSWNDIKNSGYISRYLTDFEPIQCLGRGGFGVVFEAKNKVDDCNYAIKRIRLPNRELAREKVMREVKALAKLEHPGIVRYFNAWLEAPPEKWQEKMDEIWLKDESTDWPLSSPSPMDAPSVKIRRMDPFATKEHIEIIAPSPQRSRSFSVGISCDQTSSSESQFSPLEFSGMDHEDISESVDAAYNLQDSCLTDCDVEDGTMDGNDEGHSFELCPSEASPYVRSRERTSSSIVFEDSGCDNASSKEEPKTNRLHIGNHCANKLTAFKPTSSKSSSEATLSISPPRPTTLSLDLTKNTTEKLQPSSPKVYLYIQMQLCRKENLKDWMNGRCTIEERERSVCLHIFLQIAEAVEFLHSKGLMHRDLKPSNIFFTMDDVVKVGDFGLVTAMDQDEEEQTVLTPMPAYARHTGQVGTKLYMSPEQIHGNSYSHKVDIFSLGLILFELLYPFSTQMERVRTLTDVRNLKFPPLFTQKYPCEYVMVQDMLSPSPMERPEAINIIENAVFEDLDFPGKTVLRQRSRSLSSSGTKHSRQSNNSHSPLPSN
Description: PERK In Vitro Activity Assay (Isolated):
In vitro Inhibition of PERK Enzyme Activity (isolated) Recombinant human EIF2AK2 (PKR) catalytic domain (amino acids 252-551), EIF2AK3 (PERK) catalytic domain (amino acids 536-1116), GFP-eIF2a substrate, and Terbium-labelled phospho-eIF2a antibody is obtained (Invitrogen, Carlsbad, CA).
Express and purify HIS-SUMO-GCN2 catalytic domain (amino acids 584-1019) from E. coli. Perform TR-FRET kinase assays in the absence or presence of inhibitors in a reaction buffer consisting of 50 mM HEPES, pH 7.5, 10 mM MgCb, 1.0 mM EGTA, and 0.01% Brij-35, and 100-200 nM GFP-eIF2a substrate. […] Add test compound, initiate the reaction by addition of enzyme, and incubate at room temperature for 45 minutes. Stop the reaction by addition of EDTA to a final concentration of 10 mM, add Terbium-labelled phospho-eIF2a antibody at a final concentration of 2 nM, and incubate for 90 minutes. Monitor the resulting fluorescence in an EnVison® Multilabel reader (PerkinElmer, Waltham, MA). Determine TR-FRET ratios and the resulting IC50 values using a 4-parameter nonlinear logistic equation as shown: Y=(A+((B−A)/(1+((C/x)[…])))) where, Y=% specific inhibition, A=Bottom of the curve, B=Top of the curve, C=absolute IC50 (concentration causing 50% inhibition), and D=hill slope.

PERK, sequence (Q9NZJ5 30-1116): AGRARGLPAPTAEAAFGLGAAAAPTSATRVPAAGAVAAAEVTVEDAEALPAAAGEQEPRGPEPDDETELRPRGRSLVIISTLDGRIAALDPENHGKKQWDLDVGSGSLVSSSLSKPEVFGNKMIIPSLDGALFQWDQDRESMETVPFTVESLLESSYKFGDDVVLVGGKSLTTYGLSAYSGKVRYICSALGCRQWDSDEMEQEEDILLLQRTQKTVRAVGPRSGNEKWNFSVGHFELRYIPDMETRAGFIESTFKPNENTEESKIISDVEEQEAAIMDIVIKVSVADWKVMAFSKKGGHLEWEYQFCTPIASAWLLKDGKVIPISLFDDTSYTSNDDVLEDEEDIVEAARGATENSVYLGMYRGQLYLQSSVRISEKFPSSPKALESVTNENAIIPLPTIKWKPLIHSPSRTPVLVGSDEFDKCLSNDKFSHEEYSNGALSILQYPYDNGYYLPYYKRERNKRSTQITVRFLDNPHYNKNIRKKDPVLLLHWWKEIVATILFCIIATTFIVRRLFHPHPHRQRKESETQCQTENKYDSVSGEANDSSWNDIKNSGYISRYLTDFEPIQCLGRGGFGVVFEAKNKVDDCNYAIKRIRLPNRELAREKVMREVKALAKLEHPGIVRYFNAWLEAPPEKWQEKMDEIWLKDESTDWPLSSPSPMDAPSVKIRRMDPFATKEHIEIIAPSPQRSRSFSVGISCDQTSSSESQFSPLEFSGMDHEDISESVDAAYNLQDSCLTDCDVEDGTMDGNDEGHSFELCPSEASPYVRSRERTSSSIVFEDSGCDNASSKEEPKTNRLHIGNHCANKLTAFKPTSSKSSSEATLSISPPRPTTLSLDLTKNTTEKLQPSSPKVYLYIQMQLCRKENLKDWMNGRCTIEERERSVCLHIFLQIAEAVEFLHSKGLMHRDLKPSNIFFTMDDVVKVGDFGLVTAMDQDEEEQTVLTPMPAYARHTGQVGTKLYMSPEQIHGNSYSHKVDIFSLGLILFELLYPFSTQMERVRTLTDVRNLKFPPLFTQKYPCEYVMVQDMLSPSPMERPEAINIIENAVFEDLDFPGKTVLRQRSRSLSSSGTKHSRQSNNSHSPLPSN

Compound	IC50 [1]	IC50 [2]
CNc1ccc(-c2ccc(NC(=O)C(O)c3cc(F)cc(F)c3)cc2C)cn1 (stereo not drawn) [Example 173, 2-(3,5-difluorophenyl)-2-hydroxy-N-(3-methyl-4-(6-(methylamino)pyridin-3-yl)phenyl)acetamide]	> 5 µM	0.101 to 0.25 µM
Cc1cc(NC(=O)Cc2ccccc2F)ccc1-c1cnc(N)c(C(=O)NC(C)C)c1 [Example 189, 2-amino-5-(4-(2-(2-fluorophenyl)acetamido)-2-methylphenyl)-N-isopropylnicotinamide]	0.501 to 1 µM	0.101 to 0.25 µM
Cc1cc(NC(=O)C(O)c2cc(F)cc(F)c2)ccc1-c1ccc(N)nc1 (stereo not drawn) [Example 171, N-(4-(6-aminopyridin-3-yl)-3-methylphenyl)-2-(3,5-difluorophenyl)-2-hydroxyacetamide]	> 5 µM	0.251 to 0.5 µM
Cc1cc(NC(=O)CCc2ccccc2)ccc1-c1cnc(N)c(C(=O)NC(C)C)c1 [Example 188, 2-amino-N-isopropyl-5-(2-methyl-4-(3-phenylpropanamido)phenyl) nicotinamide]	2 to 3 µM	0.251 to 0.5 µM
Cc1cc(NC(=O)C(O)c2cccc3cnn(C)c23)ccc1-c1cnc(N)c(C(=O)NC(C)C)c1 (stereo not drawn) [Example 76, 2-amino-5-(4-(2-hydroxy-2-(1-methyl-1H-indazol-7-yl)acetamido)-2-methylphenyl)-N-isopropylnicotinamide]	3 to 4 µM	0.251 to 0.5 µM
Cc1cc(NC(=O)Cc2cncc3ccccc23)ccc1-c1cnc(N)c(C(=O)NC(C)C)c1 [Example 210, 2-amino-N-isopropyl-5-(4-(2-(isoquinolin-4-yl)acetamido)-2-methylphenyl) nicotinamide]	1 to 2 µM	0.051 to 0.1 µM
Cc1cc(NC(=O)C(O)c2cc(F)cc(F)c2)ccc1-c1ccc(N)nc1 (stereo not drawn) [Example 170, N-(4-(6-aminopyridin-3-yl)-3-methylphenyl)-2-(3,5-difluorophenyl)-2-hydroxyacetamide]	2 to 3 µM	0.051 to 0.1 µM
Cc1cc(NC(=O)C(O)c2cc(F)cc(F)c2)ccc1-c1cnc(N)c(C(=O)NC2CC(O)C2)c1 (stereo not drawn) [Example 27, 2-amino-5-(4-(2-(3,5-difluorophenyl)-2-hydroxyacetamido)-2-methylphenyl)-N-(3-hydroxycyclobutyl) nicotinamide]	1 to 2 µM	0.051 to 0.1 µM
Cc1cc(NC(=O)C(O)c2cc(F)cc(F)c2)ccc1-c1cnc(N)c(C(=O)N(C)C)c1 (stereo not drawn) [Example 22, 2-amino-5-(4-(2-(3,5-difluorophenyl)-2-hydroxyacetamido)-2-methylphenyl)-N,N-dimethylnicotinamide]	2 to 3 µM	0.501 to 1 µM
Cc1cc(NC(=O)C(O)c2cc(F)cc(F)c2)ccc1-c1cnc(N)c(C(=O)O)c1 (stereo not drawn) [Example 41, 2-amino-5-(4-(2-(3,5-difluorophenyl)-2-hydroxyacetamido)-2-methylphenyl) nicotinic acid]	> 5 µM	0.101 to 0.25 µM
Cc1cc(NC(=O)N(C)c2ccccc2)ccc1-c1cnc(N)c(C(=O)NC(C)C)c1 [Example 218, 2-amino-N-isopropyl-5-(2-methyl-4-(3-methyl-3-phenylureido)phenyl)nicotinamide]	> 5 µM	1 to 2 µM
Cc1cc(NC(=O)C(O)c2cc(F)cc(F)c2)ccc1-c1cnc(N)c(C(=O)NC2CNC2)c1 (stereo not drawn) [Example 45, 2-amino-N-(azetidin-3-yl)-5-(4-(2-(3,5-difluorophenyl)-2-hydroxyacetamido)-2-methylphenyl) nicotinamide]	> 5 µM	0.051 to 0.1 µM
Cc1cc(NC(=O)CC2CCCC2)ccc1-c1cnc(N)c(C(=O)NC(C)C)c1 [Example 215, 2-amino-5-(4-(2-cyclopentylacetamido)-2-methylphenyl)-N-isopropylnicotinamide]	> 5 µM	> 5 µM
CNC(=O)c1cc(-c2ccc(NC(=O)C(O)c3cc(F)cc(F)c3)cc2C)cnc1N (single isomer, unassigned) [Example 11, 2-amino-5-(4-(2-(3,5-difluorophenyl)-2-hydroxyacetamido)-2-methylphenyl)-N-methylnicotinamide]	1 to 2 µM	0.501 to 1 µM

The remaining lines, values ahead:

IC50 [1]	IC50 [2]	Compound
0.101 to 0.25 µM	0.026 to 0.05 µM	Cc1cc(NC(=O)C(O)c2cc(F)cc(F)c2)ccc1-c1cnc(N)c(C(=O)NC(C)(C)C)c1 (single isomer, unassigned) [Example 16, 2-amino-N-(tert-butyl)-5-(4-(2-(3,5-difluorophenyl)-2-hydroxyacetamido)-2-methylphenyl) nicotinamide]
0.251 to 0.5 µM	0.001 to 0.025 µM	Cc1cccc(CC(=O)Nc2ccc(-c3cnc(N)c(C(=O)NC(C)C)c3)c(C)c2)n1 [Example 185, 2-amino-N-isopropyl-5-(2-methyl-4-(2-(6-methylpyridin-2-yl)acetamido)phenyl)nicotinamide]
0.051 to 0.1 µM	0.001 to 0.025 µM	CC(C)NC(=O)c1cc(-c2ccc(NC(=O)C(O)c3cc(F)cc(F)c3)cc2F)cnc1N (stereo not drawn) [Example 32, 2-amino-5-(4-(2-(3,5-difluorophenyl)-2-hydroxyacetamido)-2-fluorophenyl)-N-isopropylnicotinamide]
0.101 to 0.25 µM	0.026 to 0.05 µM	Cc1cc(NC(=O)Cc2cccc(Cl)c2)ccc1-c1cnc(N)c(C(=O)NC(C)C)c1 [Example 199, 2-amino-5-(4-(2-(3-chlorophenyl)acetamido)-2-methylphenyl)-N-isopropylnicotinamide]
0.026 to 0.05 µM	0.051 to 0.1 µM	Nc1ncc(-c2ccc(NC(=O)C(O)c3cc(F)cc(F)c3)cc2Cl)nc1C(=O)NCC(F)(F)F (stereo not drawn) [Example 165, 3-amino-6-(2-chloro-4-(2-(3,5-difluorophenyl)-2-hydroxyacetamido)phenyl)-N-(2,2,2-trifluoroethyl) pyrazine-2-carboxamide]
0.101 to 0.25 µM	0.026 to 0.05 µM	CCc1cc(NC(=O)C(O)c2cc(F)cc(F)c2)ccc1-c1cnc(N)c(C(=O)NC2COC2)n1 (stereo not drawn) [Example 159, 3-amino-6-(4-(2-(3,5-difluorophenyl)-2-hydroxyacetamido)-2-ethylphenyl)-N-(oxetan-3-yl)pyrazine-2-carboxamide]
0.026 to 0.05 µM	0.001 to 0.025 µM	COC1CC(NC(=O)c2cc(-c3ccc(NC(=O)C(O)c4cc(F)cc(F)c4)cc3C)cnc2N)C1 (stereo not drawn) [Example 28, 2-amino-5-(4-(2-(3,5-difluorophenyl)-2-hydroxyacetamido)-2-methylphenyl)-N-(3-methoxycyclobutyl) nicotinamide]
0.001 to 0.025 µM	0.001 to 0.025 µM	CCc1cc(NC(=O)C(O)c2cc(F)cc(F)c2)ccc1-c1cnc(N)c(C(=O)NC(C)C)c1 (single isomer, unassigned) [Example 38, 2-amino-5-(4-(2-(3,5-difluorophenyl)-2-hydroxyacetamido)-2-ethylphenyl)-N-isopropylnicotinamide]
0.001 to 0.025 µM	0.001 to 0.025 µM	CCc1cc(NC(=O)C(O)c2cc(F)cc(F)c2)ccc1-c1cnc(N)c(C(=O)NC2COC2)n1 (stereo not drawn) [Example 158, 3-amino-6-(4-(3-(3,5-difluorophenyl)-2-hydroxyacetamido)-2-ethylphenyl)-N-(oxetan-3-yl)pyrazine-2-carboxamide]
0.251 to 0.5 µM	0.026 to 0.05 µM	COC1CC(NC(=O)c2cc(-c3ccc(NC(=O)C(O)c4cc(F)cc(F)c4)cc3C)cnc2N)C1 (stereo not drawn) [Example 29, 2-amino-5-(4-(2-(3,5-difluorophenyl)-2-hydroxyacetamido)-2-methylphenyl)-N-(3-methoxycyclobutyl) nicotinamide]
0.001 to 0.025 µM	0.001 to 0.025 µM	CC(C)NC(=O)c1cc(-c2ccc(NC(=O)C(O)c3cc(F)cc(F)c3)c(F)c2Cl)cnc1N (stereo not drawn) [Example 123, 2-amino-5-(2-chloro-4-(2-(3,5-difluorophenyl)-2-hydroxyacetamido)-3-fluorophenyl)-N-isopropylnicotinamide]
0.001 to 0.025 µM	0.001 to 0.025 µM	CCc1cc(NC(=O)C(O)c2cc(F)cc(F)c2)ccc1-c1cnc(N)c(C(=O)NCC(F)(F)F)c1 (stereo not drawn) [Example 100, 2-amino-5-(4-(2-(3,5-difluorophenyl)-2-hydroxyacetamido)-2-ethylphenyl)-N-(2,2,2-trifluoroethyl) nicotinamide]
0.026 to 0.05 µM	0.001 to 0.025 µM	Cc1cc(NC(=O)[C@H](O)c2cc(F)cc(F)c2)ccc1-c1cnc(N)c(C(=O)NC2CC2)c1 [Example 14, (R)-2-amino-N-cyclopropyl-5-(4-(2-(3,5-difluorophenyl)-2-hydroxyacetamido)-2-methylphenyl)nicotinamide]
